Experimental data taken from ChEMBL document CHEMBL4765227, “Hit to lead optimization of a series of N-[4-(1,3-benzothiazol-2-yl)phenyl]acetamides as monoacylglycerol lipase inhibitors with potential anticancer activity” (Eur J Med Chem, 2016).

Columns and labels:
Assay type in all cases: functional
Conditions in all cases: read-out: GI
HT-29 = assay: Growth inhibition of human HT-29 cells at 10 uM incubated for 48 hrs by sulforhodamine B assay relative to control
HL-60(TB) = assay: Growth inhibition of human HL-60(TB) cells at 10 uM incubated for 48 hrs by sulforhodamine B assay relative to control
RPMI-8226 = assay: Growth inhibition of human RPMI-8226 cells at 10 uM incubated for 48 hrs by sulforhodamine B assay relative to control
SF-268 = assay: Growth inhibition of human SF-268 cells at 10 uM incubated for 48 hrs by sulforhodamine B assay relative to control
A549 = assay: Growth inhibition of human A549/ATCC cells at 10 uM incubated for 48 hrs by sulforhodamine B assay relative to control
TK-10 = assay: Growth inhibition of human TK-10 cells at 10 uM incubated for 48 hrs by sulforhodamine B assay relative to control
HOP-62 = assay: Growth inhibition of human HOP-62 cells at 10 uM incubated for 48 hrs by sulforhodamine B assay relative to control
HCT-15 = assay: Growth inhibition of human HCT-15 cells at 10 uM incubated for 48 hrs by sulforhodamine B assay relative to control
SNB-19 = assay: Growth inhibition of human SNB-19 cells at 10 uM incubated for 48 hrs by sulforhodamine B assay relative to control
SK-MEL-28 = assay: Growth inhibition of human SK-MEL-28 cells at 10 uM incubated for 48 hrs by sulforhodamine B assay relative to control
OVCAR-4 = assay: Growth inhibition of human OVCAR-4 cells at 10 uM incubated for 48 hrs by sulforhodamine B assay relative to control
LOX IMVI = assay: Growth inhibition of human LOX IMVI cells at 10 uM incubated for 48 hrs by sulforhodamine B assay relative to control
UACC-257 = assay: Growth inhibition of human UACC-257 cells at 10 uM incubated for 48 hrs by sulforhodamine B assay relative to control
ACHN = assay: Growth inhibition of human ACHN cells at 10 uM incubated for 48 hrs by sulforhodamine B assay relative to control
NCI-H23 = assay: Growth inhibition of human NCI-H23 cells at 10 uM incubated for 48 hrs by sulforhodamine B assay relative to control
U-251 = assay: Growth inhibition of human U-251 cells at 10 uM incubated for 48 hrs by sulforhodamine B assay relative to control
UO-31 = assay: Growth inhibition of human UO-31 cells at 10 uM incubated for 48 hrs by sulforhodamine B assay relative to control
MDA-MB-231 = assay: Growth inhibition of human MDA-MB-231 cells at 10 uM incubated for 48 hrs by sulforhodamine B assay relative to control
MOLT-4 = assay: Growth inhibition of human MOLT-4 cells at 10 uM incubated for 48 hrs by sulforhodamine B assay relative to control
CCRF-CEM = assay: Growth inhibition of human CCRF-CEM cells at 10 uM incubated for 48 hrs by sulforhodamine B assay relative to control
HCC 2998 = assay: Growth inhibition of human HCC 2998 cells at 10 uM incubated for 48 hrs by sulforhodamine B assay relative to control
KM12 = assay: Growth inhibition of human KM12 cells at 10 uM incubated for 48 hrs by sulforhodamine B assay relative to control
OVCAR-8 = assay: Growth inhibition of human OVCAR-8 cells at 10 uM incubated for 48 hrs by sulforhodamine B assay relative to control
DU-145 = assay: Growth inhibition of human DU-145 cells at 10 uM incubated for 48 hrs by sulforhodamine B assay relative to control
MDA-MB-468 = assay: Growth inhibition of human MDA-MB-468 cells at 10 uM incubated for 48 hrs by sulforhodamine B assay relative to control
RXF 393 = assay: Growth inhibition of human RXF 393 cells at 10 uM incubated for 48 hrs by sulforhodamine B assay relative to control
NCI-H522 = assay: Growth inhibition of human NCI-H522 cells at 10 uM incubated for 48 hrs by sulforhodamine B assay relative to control
T47D = assay: Growth inhibition of human T47D cells at 10 uM incubated for 48 hrs by sulforhodamine B assay relative to control
M14 = assay: Growth inhibition of human M14 cells at 10 uM incubated for 48 hrs by sulforhodamine B assay relative to control
SNB-75 = assay: Growth inhibition of human SNB-75 cells at 10 uM incubated for 48 hrs by sulforhodamine B assay relative to control
HCT-116 = assay: Growth inhibition of human HCT-116 cells at 10 uM incubated for 48 hrs by sulforhodamine B assay relative to control
SN12C = assay: Growth inhibition of human SN12C cells at 10 uM incubated for 48 hrs by sulforhodamine B assay relative to control
PC-3 = assay: Growth inhibition of human PC-3 cells at 10 uM incubated for 48 hrs by sulforhodamine B assay relative to control
BT-549 = assay: Growth inhibition of human BT-549 cells at 10 uM incubated for 48 hrs by sulforhodamine B assay relative to control
SK-OV-3 = assay: Growth inhibition of human SK-OV-3 cells at 10 uM incubated for 48 hrs by sulforhodamine B assay relative to control
UACC-62 = assay: Growth inhibition of human UACC-62 cells at 10 uM incubated for 48 hrs by sulforhodamine B assay relative to control
SF-295 = assay: Growth inhibition of human SF-295 cells at 10 uM incubated for 48 hrs by sulforhodamine B assay relative to control
SF-539 = assay: Growth inhibition of human SF-539 cells at 10 uM incubated for 48 hrs by sulforhodamine B assay relative to control
SK-MEL-5 = assay: Growth inhibition of human SK-MEL-5 cells at 10 uM incubated for 48 hrs by sulforhodamine B assay relative to control
MDA-MB-435 = assay: Growth inhibition of human MDA-MB-435 cells at 10 uM incubated for 48 hrs by sulforhodamine B assay relative to control
SR = assay: Growth inhibition of human SR cells at 10 uM incubated for 48 hrs by sulforhodamine B assay relative to control
K562 = assay: Growth inhibition of human K562 cells at 10 uM incubated for 48 hrs by sulforhodamine B assay relative to control
MCF7 = assay: Growth inhibition of human MCF7 cells at 10 uM incubated for 48 hrs by sulforhodamine B assay relative to control
HOP-92 = assay: Growth inhibition of human HOP-92 cells at 10 uM incubated for 48 hrs by sulforhodamine B assay relative to control

O=C(Cn1cncn1)Nc1ccc(-c2nc3ccccc3s2)cc1
inhibition of growth at 10 µM (HT-29): -4.68%
inhibition of growth at 10 µM (HL-60(TB)): -2.11%
inhibition of growth at 10 µM (RPMI-8226): 16.8%
inhibition of growth at 10 µM (SF-268): 2.87%
inhibition of growth at 10 µM (A549): 11.9%
inhibition of growth at 10 µM (TK-10): -6.22%
inhibition of growth at 10 µM (HOP-62): -2.28%
inhibition of growth at 10 µM (HCT-15): -1.4%
inhibition of growth at 10 µM (SNB-19): 6.99%
inhibition of growth at 10 µM (SK-MEL-28): -11%
inhibition of growth at 10 µM (OVCAR-4): 19.4%
inhibition of growth at 10 µM (LOX IMVI): 0.66%
inhibition of growth at 10 µM (UACC-257): -2.17%
inhibition of growth at 10 µM (ACHN): -10.5%
inhibition of growth at 10 µM (NCI-H23): 12.5%
inhibition of growth at 10 µM (U-251): 10%
inhibition of growth at 10 µM (UO-31): 23.1%
inhibition of growth at 10 µM (MDA-MB-231): 3.55%
inhibition of growth at 10 µM (MOLT-4): 8.15%
inhibition of growth at 10 µM (CCRF-CEM): -4.97%
inhibition of growth at 10 µM (HCC 2998): 6.06%
inhibition of growth at 10 µM (KM12): 1.84%
inhibition of growth at 10 µM (OVCAR-8): 5.43%
inhibition of growth at 10 µM (DU-145): 5.46%
inhibition of growth at 10 µM (MDA-MB-468): 130%
inhibition of growth at 10 µM (RXF 393): -25.3%
inhibition of growth at 10 µM (NCI-H522): 12.5%
inhibition of growth at 10 µM (T47D): 35.1%
inhibition of growth at 10 µM (M14): -11.2%
inhibition of growth at 10 µM (SNB-75): 7.87%
inhibition of growth at 10 µM (HCT-116): 4.58%
inhibition of growth at 10 µM (SN12C): 4.85%
inhibition of growth at 10 µM (PC-3): 14.2%
inhibition of growth at 10 µM (BT-549): 8.47%
inhibition of growth at 10 µM (SK-OV-3): 0.14%
inhibition of growth at 10 µM (UACC-62): 4.77%
inhibition of growth at 10 µM (SF-295): 8.06%
inhibition of growth at 10 µM (SF-539): -7.74%
inhibition of growth at 10 µM (SK-MEL-5): 13.3%
inhibition of growth at 10 µM (MDA-MB-435): -4.86%
inhibition of growth at 10 µM (SR): 16.2%
inhibition of growth at 10 µM (K562): 14.2%
inhibition of growth at 10 µM (MCF7): 63.9%
inhibition of growth at 10 µM (HOP-92): 6.49%

O=C(Cn1ccnc1)Nc1ccc(-c2nc3ccccc3s2)cc1
inhibition of growth at 10 µM (HT-29): 6.65%
inhibition of growth at 10 µM (HL-60(TB)): 22.7%
inhibition of growth at 10 µM (RPMI-8226): 48%
inhibition of growth at 10 µM (SF-268): 18.9%
inhibition of growth at 10 µM (A549): 29.7%
inhibition of growth at 10 µM (TK-10): 18.2%
inhibition of growth at 10 µM (HOP-62): 16.2%
inhibition of growth at 10 µM (HCT-15): 13%
inhibition of growth at 10 µM (SNB-19): 23.6%
inhibition of growth at 10 µM (SK-MEL-28): -4.87%
inhibition of growth at 10 µM (OVCAR-4): 65.2%
inhibition of growth at 10 µM (LOX IMVI): 26.6%
inhibition of growth at 10 µM (UACC-257): 32.4%
inhibition of growth at 10 µM (ACHN): 9.7%
inhibition of growth at 10 µM (NCI-H23): 42.6%
inhibition of growth at 10 µM (U-251): 28.1%
inhibition of growth at 10 µM (UO-31): 39.6%
inhibition of growth at 10 µM (MDA-MB-231): 19.9%
inhibition of growth at 10 µM (MOLT-4): 31.9%
inhibition of growth at 10 µM (CCRF-CEM): 30.9%
inhibition of growth at 10 µM (HCC 2998): 5.1%
inhibition of growth at 10 µM (KM12): 15.6%
inhibition of growth at 10 µM (OVCAR-8): 19.7%
inhibition of growth at 10 µM (DU-145): 18.9%
inhibition of growth at 10 µM (MDA-MB-468): 99.2%
inhibition of growth at 10 µM (RXF 393): -2.19%
inhibition of growth at 10 µM (NCI-H522): 25.3%
inhibition of growth at 10 µM (T47D): 48.6%
inhibition of growth at 10 µM (M14): 5.59%
inhibition of growth at 10 µM (SNB-75): 11.2%
inhibition of growth at 10 µM (HCT-116): 31.9%
inhibition of growth at 10 µM (SN12C): 15.4%
inhibition of growth at 10 µM (PC-3): 34.1%
inhibition of growth at 10 µM (BT-549): 34.9%
inhibition of growth at 10 µM (SK-OV-3): 12.2%
inhibition of growth at 10 µM (UACC-62): 17.1%
inhibition of growth at 10 µM (SF-295): 34.5%
inhibition of growth at 10 µM (SF-539): 18.7%
inhibition of growth at 10 µM (SK-MEL-5): 60.8%
inhibition of growth at 10 µM (MDA-MB-435): 18.4%
inhibition of growth at 10 µM (SR): 63.5%
inhibition of growth at 10 µM (K562): 60.4%
inhibition of growth at 10 µM (MCF7): 38.7%
inhibition of growth at 10 µM (HOP-92): 24.2%
